Results: patent US12171230B2, “Herbicidal compositions” (Bayer Aktiengesellschaft, priority 2018, dated 2024)

Tests used:
Assay type in all cases: in vivo
[1] = system: Matricaria inodora; experiment: Post-emergence herbicidal action against Matricaria inodora
[2] = system: Lolium rigidum; experiment: Post-emergence herbicidal action against Lolium rigidum
[3] = system: Bromus sterilis; experiment: Post-emergence herbicidal action against Bromus sterilis
[4] = system: Galium aparine; experiment: Post-emergence herbicidal action against Galium aparine
Experimental: (§1) When the observed efficacies exceed the formal sum total of the values of the tests with individual applications, they also exceed the expected value according to Colby, which is calculated using the formula below and is likewise regarded as an indication of synergism (cf. S. R. Colby; in Weeds 15 (1967) p. 20 to 22): E^C=A+B−([…])
(§2) Here: • A=efficacy of the active compound (A) in % at an application rate of a g a.i./ha; • B=efficacy of the active compound (B) in % at an application rate of b g a.i./ha; • E^C=expected value of the effect of the combination (A)+(B) in % at the combined application rate a+b g a.i./ha.
(§3) Seeds or rhizome pieces of mono- and dicotyledonous weeds are placed in sandy loam in pots, covered with soil and grown in a greenhouse under good growth conditions (temperature, air humidity, water supply). Three weeks after sowing, the test plants were treated at the three-leaf stage with the compositions according to the invention. The compositions according to the invention formulated as spray powders or as emulsion concentrates were sprayed onto the green plant parts in various dosages with an application rate of 300 to 800 l/ha of water (equivalent). After the test plants have been left to stand in the greenhouse under optimal growth conditions for about 3 to 4 weeks, the action of the preparations is scored visually in comparison to untreated controls. The compositions according to the invention also have good post-emergence herbicidal activity against a broad spectrum of economically important gramineous and broadleaf weeds.

[5] = system: Alopecurus myosuroides; experiment: Post-emergence herbicidal action against Alopecurus myosuroides
[6] = system: Lolium rigidum (resistant biotype); experiment: Post-emergence herbicidal action against Lolium rigidum (resistant biotype)
[7] = system: Phalaris minor; experiment: Post-emergence herbicidal action against Phalaris minor
[8] = system: Viola tricolor; experiment: Post-emergence herbicidal action against Viola tricolor
[9] = system: Centaurea cyano; experiment: Post-emergence herbicidal action against Centaurea cyano
Experimental: Seeds or rhizome pieces of mono- and dicotyledonous weeds are placed in sandy loam in pots, covered with soil and grown in a greenhouse under good growth conditions (temperature, air humidity, water supply). Three weeks after sowing, the test plants were treated at the three-leaf stage with the compositions according to the invention. The compositions according to the invention formulated as spray powders or as emulsion concentrates were sprayed onto the green plant parts in various dosages with an application rate of 300 to 800 l/ha of water (equivalent).

[10] = system: Lamium purpureum; experiment: Post-emergence herbicidal action against Lamium purpureum
Experimental: as §1, §2, §3

[11] = system: Poa annua; experiment: Post-emergence herbicidal action against Poa annua; details: for Herbicidal action: 28 DAT
Experimental: as §1, §2, §3

[12] = system: Phalaris minor; experiment: Post-emergence herbicidal action against Phalaris minor; details: 16 g of a.i./ha
Excerpt: (§4) The following abbreviations are used in the description and the tables that follow: • g of a.i./ha=grams of active substance (active ingredient) (=100% active compound) per hectare; • The sum total of the effects of the individual applications is reported under E^A; • expected values according to Colby are each reported under E^C.
(§5) The rating period is reported in days after application (DAT).

[13] = system: Lolium rigidum; experiment: Post-emergence herbicidal action against Lolium rigidum; details: resistant biotype
[14] = system: Phalaris minor; experiment: Post-emergence herbicidal action against Phalaris minor; details: 28 DAT; 16 g a.i./ha
[15] = system: Lolium rigidum; experiment: Post-emergence herbicidal action against Lolium rigidum; details: 16 g of a.i./ha
Excerpt: as §4, §5

[16] = system: Lolium rigidum (resistant biotype); experiment: Post-emergence herbicidal action against Lolium rigidum (resistant biotype); details: 16 g of a.i./ha
Excerpt: as §4, §5

[17] = system: Viola tricolor; experiment: Post-emergence herbicidal action against Viola tricolor; details: 28 DAT
[18] = system: Bromus sterilis; experiment: Post-emergence herbicidal action against Bromus sterilis; remark: listed apart in the source
[19] = system: Bromus sterilis; experiment: as above; details: (Z148) post-emergence; for Herbicidal action 14 DAT against Bromus sterilis: g of a.i./ha: 4, 1, 270, 90, 30, 4 + 270, 4 + 90, 4 + 30, 1 + 30
Excerpt: as §4, §5

CC(C)C1(C)N=C(c2ncccc2C(=O)O)NC1=O (stereo not drawn) [(B4.13) Imazapyr]
30%: Herbicidal action in [%] 28 DAT against Galium aparine ([4]; 0.5 g of a.i./ha)
20%: Herbicidal action in [%] 28 DAT against Matricaria inodora ([1]; 4.5 g of a.i./ha) | Herbicidal action in [%] 14 DAT against Lolium rigidum ([2]; 4.5 g of a.i./ha) | Herbicidal action in [%] 14 DAT against Alopecurus myosuroides ([5]; 4.5 g of a.i./ha) | Herbicidal action in [%] 28 DAT against Alopecurus myosuroides ([5]; 4.5 g of a.i./ha) | Herbicidal action in [%] 28 DAT against Phalaris minor ([7]; 4.5 g of a.i./ha) | Herbicidal action in [%] 28 DAT against Viola tricolor ([8]; 1.5 g of a.i./ha) | Herbicidal action in [%] 28 DAT against Lamium purpureum L. ([10]; 4.5 g of a.i./ha) | Herbicidal action in [%] 28 DAT against Poa annua L. ([11]; 4.5 g of a.i./ha)
25%: Herbicidal action in [%] 14 DAT against Bromus sterilis ([3]; 4.5 g of a.i./ha) | Herbicidal action in [%] 14 DAT against Galium aparine ([4]; 4.5 g of a.i./ha) | Herbicidal action in [%] 14 DAT against Phalaris minor ([7]; 4.5 g of a.i./ha) | Herbicidal action in [%] 28 DAT against Centaurea cyanus ([9]; 4.5 g of a.i./ha) | Herbicidal action in [%] 14 DAT against Lamium purpureum L. ([10]; 1.5 g of a.i./ha)
50%: Herbicidal action in [%] 28 DAT against Galium aparine ([4]; 1.5 g of a.i./ha)
0%: Herbicidal action in [%] 14 DAT against Matricaria inodora ([1]; 0.5 g of a.i./ha) | Herbicidal action in [%] 28 DAT against Matricaria inodora ([1]; 0.5 g of a.i./ha) | Herbicidal action in [%] 14 DAT against Lolium rigidum ([2]; 1.5 g of a.i./ha) | Herbicidal action in [%] 28 DAT against Lolium rigidum ([2]; 1.5 g of a.i./ha) | Herbicidal action in [%] 14 DAT against Bromus sterilis ([3]; 0.5 g of a.i./ha) | Herbicidal action in [%] 14 DAT against Bromus sterilis ([3]; 1.5 g of a.i./ha) | Herbicidal action in [%] 14 DAT against Lolium rigidum (resistant biotype) ([6]; 0.5 g of a.i./ha) | Herbicidal action in [%] 28 DAT against Lolium rigidum (resistant biotype) ([6]; 1.5 g of a.i./ha) | Herbicidal action in [%] 14 DAT against Phalaris minor ([7]; 0.5 g of a.i./ha) | Herbicidal action in [%] 28 DAT against Phalaris minor ([7]; 0.5 g of a.i./ha) | Herbicidal action in [%] 14 DAT against Phalaris minor ([7]; 1.5 g of a.i./ha) | Herbicidal action in [%] 14 DAT against Lamium purpureum L. ([10]; 0.5 g of a.i./ha) | Herbicidal action in [%] 28 DAT against Lamium purpureum L. ([10]; 0.5 g of a.i./ha) | Herbicidal action in [%] 28 DAT against Lamium purpureum L. ([10]; 1.5 g of a.i./ha) | Herbicidal action in [%] 28 DAT against Poa annua L. ([11]; 0.5 g of a.i./ha) | Herbicidal action in [%] 14 DAT against Poa annua L. ([11]; 1.5 g of a.i./ha) | Herbicidal action in [%] 14 DAT against Poa annua L. ([11]; 4.5 g of a.i./ha)
10%: Herbicidal action in [%] 28 DAT against Bromus sterilis ([3]; 1.5 g of a.i./ha) | Herbicidal action in [%] 14 DAT against Alopecurus myosuroides ([5]; 1.5 g of a.i./ha) | Herbicidal action in [%] 14 DAT against Lolium rigidum (resistant biotype) ([6]; 1.5 g of a.i./ha) | Herbicidal action in [%] 28 DAT against Phalaris minor ([7]; 1.5 g of a.i./ha) | Herbicidal action in [%] 14 DAT against Viola tricolor ([8]; 0.5 g of a.i./ha) | Herbicidal action in [%] 14 DAT against Centaurea cyanus ([9]; 4.5 g of a.i./ha)
40%: Herbicidal action in [%] 14 DAT against Galium aparine ([4]; 1.5 g of a.i./ha) | Herbicidal action in [%] 28 DAT against Galium aparine ([4]; 4.5 g of a.i./ha) | Herbicidal action in [%] 14 DAT against Viola tricolor ([8]; 1.5 g of a.i./ha) | Herbicidal action in [%] 14 DAT against Viola tricolor ([8]; 4.5 g of a.i./ha) | Herbicidal action in [%] 14 DAT against Lamium purpureum L. ([10]; 4.5 g of a.i./ha)
15%: Herbicidal action in [%] 28 DAT against Lolium rigidum ([2]; 4.5 g of a.i./ha) | Herbicidal action in [%] 28 DAT against Bromus sterilis ([3]; 4.5 g of a.i./ha) | Herbicidal action in [%] 14 DAT against Lolium rigidum (resistant biotype) ([6]; 4.5 g of a.i./ha) | Herbicidal action in [%] 28 DAT against Lolium rigidum (resistant biotype) ([6]; 4.5 g of a.i./ha) | Herbicidal action in [%] 28 DAT against Viola tricolor ([8]; 4.5 g of a.i./ha) | Herbicidal action in [%] 28 DAT against Poa annua L. ([11]; 1.5 g of a.i./ha)

COC(=O)C1=C[C@@H](NC(=O)[C@@]2(C)CC(c3cc(F)cc(F)c3)=NO2)CO1 [Compound A6, methyl (3R)-3-[[(5R)-3-(3,5-difluorophenyl)-5-methyl-4H-isoxazole-5-carbonyl]amino]-2,3-dihydrofuran-5-carboxylate]
50%: Herbicidal action ([13]; 14 DAT, 1 g a.i./ha) | Herbicidal action ([17]; 4 g a.i./ha) | Herbicidal action ([18]; 28 DAT, 1 g a.i./ha) | Herbicidal action 28 DAT against Bromus sterilis ([19]; g of a.i./ha: 1, 270, 90, 30, 1 + 270, 1 + 90, 1 + 30) | Herbicidal action ([11]; 1 g a.i./ha)
60%: Herbicidal action 28 DAT against Galium aparine ([4]; 1 g of a.i./ha) | Herbicidal action ([17]; 16 g a.i./ha)
40%: Herbicidal action ([1]; 14 DAT, 1 g a.i./ha) | Herbicidal action ([9]; 14 DAT, 1 g a.i./ha) | Herbicidal action ([9]; 28 DAT, 1 g a.i./ha)
85%: Herbicidal action ([18]; 14 DAT, 16 g a.i./ha) | Herbicidal action ([9]; 14 DAT, 4 g a.i./ha) | Herbicidal action 14 DAT against Lamium purpureum L. ([10]; 4 g of a.i./ha)
80%: Herbicidal action ([18]; 14 DAT, 4 g a.i./ha) | Herbicidal action 14 DAT against Bromus sterilis ([19]; 4 g of a.i./ha)
70%: Herbicidal action ([13]; 28 DAT, 16 g a.i./ha) | Herbicidal action 14 DAT against Matricaria inodora ([1]; 16 g of a.i./ha) | Herbicidal action 28 DAT against Lolium rigidum (resistant biotype) [16] | Herbicidal action ([9]; 28 DAT, 4 g a.i./ha) | Herbicidal action 28 DAT against Poa annua L. ([11]; 16 g of a.i./ha) | Herbicidal action ([11]; 16 g a.i./ha)
75%: Herbicidal action 14 DAT against Bromus sterilis ([19]; 1 g of a.i./ha) | Herbicidal action 28 DAT against Lamium purpureum L. ([10]; 1 g of a.i./ha)
90%: Herbicidal action 28 DAT against Phalaris minor [12] | Herbicidal action [14] | Herbicidal action 28 DAT against Lolium rigidum [15]
